Test systems include 786-0 renal; SK-MEL-2 melanoma; EKVX NSCLC; MALME-3M melanoma; UACC-62 melanoma; TK-10 renal; SW-620 colon; SN12C renal; ACHN renal; SK-OV-3 ovarian.
Common to all, as to assay: DTP human tumour cell line panel, 48 h

Values joined by “and” are separate entries in the source; they are usually repeats but may differ in a detail not shown here. Identical values can stand only once.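 The compound was tested at five concentrations on cells cultured in 96-well plates, with a 48-hour exposure period. GI50: concentration for 50% inhibition of growth. TGI marks complete inhibition of growth.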

As a reminder, the TGI is the concentration giving total growth inhibition. On to `C[Si](C)(C)[C@@]1([Se]c2ccccc2)CC[C@@H]1C(=O)c1ccccc1`, for which the TGI in the experiment with 786-0 renal, with SK-MEL-2 melanoma, in the experiment on EKVX NSCLC, in the experiment on MALME-3M melanoma, in the experiment with UACC-62 melanoma and in the experiment on TK-10 renal was over 100 µM each time. Also, the TGI with SW-620 colon, in the experiment with SN12C renal, in the experiment on ACHN renal and with SK-OV-3 ovarian was over 100 µM in each case.

As for `CC(C)(C)c1ccc(C(O)(c2ccc(C(C)(C)C)cc2)c2ccc(C(C)(C)C)cc2)cc1`, the TGI in the experiment with 786-0 renal, with SK-MEL-2 melanoma, in the experiment with EKVX NSCLC, with MALME-3M melanoma, with UACC-62 melanoma and with TK-10 renal was over 100 µM in each case. In addition, the TGI in the experiment with SW-620 colon, with SN12C renal, in the experiment on ACHN renal and in the experiment with SK-OV-3 ovarian was over 100 µM throughout.

For the compound `OCC1CC2CC1C1(C2)OCCO1` (stereo not given), the TGI in the experiment with 786-0 renal, with SK-MEL-2 melanoma, with EKVX NSCLC, with MALME-3M melanoma, with UACC-62 melanoma and with TK-10 renal was over 100 µM in each case. For the same compound, the concentration for total growth inhibition (TGI) in the experiment on SW-620 colon, with SN12C renal, in the experiment with ACHN renal and in the experiment with SK-OV-3 ovarian was over 100 µM in each case.

For the compound `O=C1CCCc2c(O)ccc(O)c21`, the TGI in the experiment on 786-0 renal, in the experiment on SK-MEL-2 melanoma, in the experiment on EKVX NSCLC, in the experiment on MALME-3M melanoma, with UACC-62 melanoma and in the experiment with TK-10 renal was over 100 µM in each case. In addition, the TGI in the experiment on SW-620 colon, in the experiment on SN12C renal, in the experiment with ACHN renal and in the experiment on SK-OV-3 ovarian was over 100 µM each time.

One may read the GI50 as the concentration that inhibits growth by half. As to `C=C1C(=O)O[C@H]2[C@H](OC(C)=O)[C@@H](C)CCC/C(C)=C/CC[C@]3(CO3)[C@H](O)C[C@@H]12`, the GI50 in the experiment on 786-0 renal is 3.65 µM; with SK-MEL-2 melanoma, 14.8 µM; in the experiment on EKVX NSCLC it was 4.52 µM; in the experiment on MALME-3M melanoma, 2.69 µM; with UACC-62 melanoma, 12.7 µM; in the experiment on TK-10 renal, 1.83 µM. Also, the GI50 in the experiment on SW-620 colon is 3.24 µM; in the experiment on SN12C renal it was 4.26 µM; with ACHN renal, 2.3 µM; with SK-OV-3 ovarian, 9.12 µM. The total growth inhibition concentration (TGI) with 786-0 renal was determined as 14.1 µM; with SK-MEL-2 melanoma, 31.9 µM; with EKVX NSCLC, 17.3 µM; in the experiment on MALME-3M melanoma, 12.3 µM; with UACC-62 melanoma, 25.3 µM; in the experiment with TK-10 renal it was 4.62 µM. The TGI turned out to be 10.7 µM in the experiment with SW-620 colon, 14.3 µM with SN12C renal, 4.17 µM with ACHN renal and 21.7 µM in the experiment on SK-OV-3 ovarian.

In the case of `Cc1ccc(S(=O)(=O)ON=C2CC(c3ccccc3)N(C)C(c3ccccc3)C2)cc1` (stereo not given), the TGI in the experiment on 786-0 renal is 44.9 µM and 58.5 µM; with SK-MEL-2 melanoma, 30 µM; in the experiment on EKVX NSCLC it was over 100 µM; in the experiment with MALME-3M melanoma it was 78.1 µM and 66.4 µM; with UACC-62 melanoma, 31.1 µM; in the experiment with TK-10 renal, 49.1 µM and 48.5 µM. In addition, the concentration for total growth inhibition (TGI) with SW-620 colon was 38.8 µM and 31.2 µM; in the experiment with SN12C renal it was 55 µM; in the experiment on ACHN renal, 50.7 µM; with SK-OV-3 ovarian, 44.9 µM and 47.7 µM.

In the case of `N#CCc1nc2c(s1)C(=O)c1ccccc1C2=O`, the TGI in the experiment with 786-0 renal came to 30.1 µM; in the experiment with SK-MEL-2 melanoma it was 35.6 µM; in the experiment with EKVX NSCLC, 49.1 µM; with MALME-3M melanoma, 34.3 µM; with UACC-62 melanoma, 26.5 µM; in the experiment on TK-10 renal, 36.5 µM. In addition, the TGI in the experiment on SW-620 colon was 34.8 µM; in the experiment on SN12C renal, 33.5 µM; in the experiment with ACHN renal, 27.4 µM; in the experiment with SK-OV-3 ovarian, over 100 µM.

On to `COC(=N)/C(=C1\OC(N)=C(c2ccc(Cl)cc2)C1=O)c1ccc(Cl)cc1`, for which the TGI in the experiment on 786-0 renal, in the experiment with SK-MEL-2 melanoma, in the experiment with EKVX NSCLC, in the experiment with MALME-3M melanoma, with UACC-62 melanoma and in the experiment on TK-10 renal was over 100 µM in each case. Further, the TGI with SW-620 colon, in the experiment on SN12C renal, in the experiment with ACHN renal and in the experiment on SK-OV-3 ovarian was over 100 µM each time.

The values are drawn from PubChem BioAssay (NCI).
